Measurements published in patent US20260124191A1, “HISTONE DEACETYLASE INHIBITOR AND USES THEREOF” (NANJING HONGSHUN PHARMACEUTICAL TECHNOLOGY CO., LTD, priority 2023, published 2026).

How the values were obtained:
HT29 = assay: In vitro anti-tumor activity, MTT method; format: cell-based; conditions: Homo sapiens, HT-29, 96-hour treatment, read-out: Antiproliferative Activity (IC50 ± SD, μM) HT29
HDAC = HDAC inhibitory activity assay (FRET); format: biochemical; conditions: for IC50: HDAC, FRET, read-out: Half-maximal inhibitory concentration (IC50 ± SD); for Inhibition rate: test concentration 100 nM, relative to DMSO control
Experimental: The HDAC inhibitory activity of the synthesized compounds was determined by fluorescence resonance energy transfer (FRET), and then compared with that of the positive control to screen out compounds with better activity. HDAC was obtained by purification or purchased directly.
The method was as follows.
An enzyme was added to reaction wells, a reaction buffer was added to control wells, a sample dissolved in DMSO was added to the reaction wells, and the wells were incubated using a contactless nanoflow sonic pipetting system (Ech-550; nanoflow). A fluorescent substrate was added to each reaction well and then rotated and shaken. The wells were incubated for 1-2 h at 30° C. under a sealed condition. A TMP26-containing chromogenic agent was added to terminate the reaction and produce fluorescence. The fluorescence intensity was detected using En Vision multi-label microplate detector (Perkin Elmer) (excitation light: 490 nm, emitted light: 520 nm). After the stabilization of color development, the endpoint value was read. The percentage (relative to the DMSO control group) inhibition rate was calculated using the software GraphPad Prism 4.

[1] = test system: human prostate cancer cells LNCAP; assay: In vitro anti-tumor activity, MTT method; format: cell-based; conditions: 96-hour treatment, read-out: Antiproliferative Activity (IC50 ± SD, μM) LNCAP
Experimental: (§1) The inhibitory effects of the compounds against human non-small cell lung cancer cell lines A549, NCI-H1650, human small cell lung cancer cell lines H446, human prostate cancer cells DU145, PC-3, LNCAP, human colon cancer cells lines HCT116, human breast cancer cells MDA-MB-231, and MCF7 tumor cell lines were determined using the MTT method.
(§2) The method was as follows. The cells in the exponential growth phase were collected to count living cells. The concentration of the cell suspension was adjusted using the corresponding medium of each group of cells. The cell suspension was added to the 96-well culture plate at 100 μL per cell, and the plate was placed in a 5% CO2 incubator at 37° C. and incubated for 24 h. Each test compound was dissolved in DMSO to prepare a stock solution with a corresponding concentration. Then, each stock solution was diluted 500-fold with the medium to prepare 4 replicate wells. 100 μL of the corresponding 500-fold solution was added to each well per cell line, with the final DMSO concentration of 0.1%. […] The half-maximal (relative to the DMSO control group) inhibition rate was calculated using the software GraphPad Prism 4.

[2] = test system: human non-small cell lung cancer cell line NCI-H1650; assay: In vitro anti-tumor activity, MTT method; format: cell-based; conditions: 96-hour treatment, read-out: Antiproliferative Activity (IC50 ± SD, μM) H1650
Experimental: as §1, §2

[3] = test system: human breast cancer cells MCF7; assay: In vitro anti-tumor activity, MTT method; format: cell-based; conditions: Homo sapiens, MCF7, 96 h, MCF-7, MTT, 96-hour treatment
Experimental: as §1, §2

[4] = test system: human colon cancer cell line HCT116; assay: In vitro anti-tumor activity, MTT method; format: cell-based; conditions: HCT-116, 96-hour treatment, read-out: Antiproliferative Activity (IC50 ± SD, μM) HCT116
Experimental: as §1, §2

[5] = test system: human breast cancer cells MDA-MB-231; assay: In vitro anti-tumor activity, MTT method; format: cell-based; conditions: MDA-MB-231, MTT, 96-hour treatment, read-out: Antiproliferative Activity (IC50 ± SD, μM) MDA-MB-231
Experimental: as §1, §2

[6] = test system: human prostate cancer cells DU145; assay: In vitro anti-tumor activity, MTT method; format: cell-based; conditions: Homo sapiens, DU-145, 96 h, 96-hour treatment
Experimental: as §1, §2

[7] = test system: human non-small cell lung cancer cell line A549; assay: In vitro anti-tumor activity, MTT method; format: cell-based; conditions: Homo sapiens, A549, 96 h, 96-hour treatment
Experimental: as §1, §2

[8] = test system: human small cell lung cancer cell line H446; assay: In vitro anti-tumor activity, MTT method; format: cell-based; conditions: NCI-H446, 96-hour treatment, read-out: Antiproliferative Activity (IC50 ± SD, μM) H446
Experimental: as §1, §2

[9] = test system: human prostate cancer cells PC-3; assay: In vitro anti-tumor activity, MTT method; format: cell-based; conditions: Homo sapiens, 96 h, PC-3, MTT, 96-hour treatment
Experimental: as §1, §2

| SMILES | IC50 (HT29) [µM] | IC50 (HDAC) [nM] | IC50 [1] [µM] | IC50 [2] [µM] | IC50 [3] [nM] | IC50 [4] [µM] | IC50 [5] [µM] | IC50 [6] [nM] | IC50 [7] [nM] | IC50 [8] [µM] | IC50 [9] [nM] | Inhibition rate (HDAC) |
| --- | --- | --- | --- | --- | --- | --- | --- | --- | --- | --- | --- | --- |
| O=C(CCCCCCN1C(=O)C/C(=C\c2ccccc2)C1=O)NO [Example I-4] | 1.76 ± 0.25 | 12.9 ± 0.1 | 1.63 ± 0.24 | 6.12 ± 0.88 | 1430 ± 60 | 0.75 ± 0.08 | 0.67 ± 0.1 | 500 ± 70 | 1320 ± 170 | 0.57 ± 0.03 | 820 ± 70 | – |
| O=C(CCCCCCN1C(=O)C/C(=C\c2ccc(C(F)(F)F)cc2)C1=O)NO [Example I-17, (E)-7-(3-(4-trifluoromethylbenzal)-2,5-diketopyrrolidinyl)-N-hydroxyheptamide] | – | – | – | – | 1680 ± 90 | – | – | 1220 ± 180 | 3370 ± 430 | – | 1830 ± 50 | 76.2% ± 0.7% |
| Nc1cc(F)ccc1NC(=O)CCCCN1C(=O)C/C(=C\c2ccccc2)C1=O [Example I-7, (E)-N-(2-amino-4-fluorophenyl)-5-(3-benzal-2,5-diketopyrrolidinyl)pentanamide] | – | – | – | – | > 20000 | – | – | > 20000 | > 20000 | – | > 20000 | 0% |
| O=C(CCCCCCN1C(=O)C/C(=C\c2ccc3ccccc3c2)C1=O)NO [Example I-22, (E)-7-(3-(2-methylenenaphthyl)-2,5-diketopyrrolidinyl)-N-hydroxyheptamide] | 1.69 ± 0.1 | – | 1.48 ± 0.2 | 4.42 ± 0.72 | 980 ± 20 | 0.91 ± 0.11 | 0.98 ± 0.11 | 340 ± 30 | 1800 ± 140 | 0.7 ± 0.1 | 1290 ± 140 | 89.4% ± 0.9% |
| COc1ccccc1/C=C1\CC(=O)N(CCCCCCC(=O)NO)C1=O [Example I-31, (E)-7-(3-(2-methoxybenzal)-2,5-diketopyrrolidinyl)-N-hydroxyheptamide] | 1.05 ± 0.1 | 12.6 ± 0.15 | 0.63 ± 0.12 | 3.56 ± 0.1 | 350 ± 20 | 0.47 ± 0.01 | 0.31 ± 0.05 | 160 ± 40 | 1390 ± 60 | 0.65 ± 0.05 | 820 ± 90 | – |
| COc1ccc(Br)cc1/C=C1\CC(=O)N(CCCCCCC(=O)NO)C1=O [Example I-39, (E)-7-(3-(5-bromo-2-methoxybenzal)-2,5-diketopyrrolidinyl)-N-hydroxyheptamide] | – | – | – | – | 680 ± 90 | – | – | 460 ± 40 | 2210 ± 270 | – | 1130 ± 70 | 88.1% ± 1.1% |
| N#Cc1ccccc1/C=C1\CC(=O)N(CCCCCCC(=O)NO)C1=O [Example I-20, (E)-7-(3-(2-cyanobenzal)-2,5-diketopyrrolidinyl)-N-hydroxyheptamide] | – | 40.1 ± 1.21 | – | – | 820 ± 50 | – | – | 740 ± 100 | 2820 ± 390 | – | 870 ± 100 | – |
| O=C(CCCCCCN1C(=O)C/C(=C\c2ccccc2)C1=O)N[C@H]1CCCC[C@@H]1O [Example I-13, 7-(3-((E)-benzal)-2,5-diketopyrrolidinyl)-N-((1S,2S)-2-hydroxycyclohexyl)heptamide] | – | – | – | – | > 20000 | – | – | > 20000 | > 20000 | – | > 20000 | 0% |

More lines, main results first:

| IC50 (HT29) [µM] | IC50 (HDAC) [nM] | IC50 [1] [µM] | IC50 [2] [µM] | IC50 [3] [nM] | IC50 [4] [µM] | IC50 [5] [µM] | IC50 [6] [nM] | IC50 [7] [nM] | IC50 [8] [µM] | IC50 [9] [nM] | SMILES | Inhibition rate (HDAC) |
| --- | --- | --- | --- | --- | --- | --- | --- | --- | --- | --- | --- | --- |
| 1.22 ± 0.1 | 19.3 ± 0.11 | 1.51 ± 0.22 | 6.6 ± 0.57 | 580 ± 30 | 0.86 ± 0.08 | 0.99 ± 0.11 | 480 ± 60 | 1330 ± 230 | 0.77 ± 0.1 | 1440 ± 100 | O=C(CCCCCCN1C(=O)C/C(=C\c2ccccc2Cl)C1=O)NO [Example I-24, (E)-7-(3-(2-chlorobenzal)-2,5-diketopyrrolidinyl)-N-hydroxyheptamide] | – |
| 1.3 ± 0.1 | – | 1.95 ± 0.21 | 7.3 ± 0.56 | 1050 ± 240 | 0.81 ± 0.06 | 2.05 ± 0.2 | 380 ± 40 | 1120 ± 200 | 0.78 ± 0.04 | 1700 ± 80 | O=C(CCCCCCN1C(=O)C/C(=C\c2cccc(Cl)c2)C1=O)NO [Example I-25, (E)-7-(3-(3-chlorobenzal)-2,5-diketopyrrolidinyl)-N-hydroxyheptamide] | 91.2% ± 0.7% |
| – | 18.5 ± 0.19 | – | – | 880 ± 90 | – | – | 400 ± 40 | 1240 ± 210 | – | 920 ± 30 | COc1cccc(/C=C2\CC(=O)N(CCCCCCC(=O)NO)C2=O)c1 [Example I-32, (E)-7-(3-(3-methoxybenzal)-2,5-diketopyrrolidinyl)-N-hydroxyheptamide] | – |
| – | – | – | – | 900 ± 20 | – | – | 440 ± 80 | 2340 ± 100 | – | 1690 ± 80 | O=C(CCCCCCN1C(=O)C/C(=C\c2ccc(Cl)c(Cl)c2)C1=O)NO [Example I-30, (E)-7-(3-(3,4-dichlorobenzal)-2,5-diketopyrrolidinyl)-N-hydroxyheptamide] | 82.1% ± 0.1% |
